{"source": "patent US5424456A", "about": "“N-arylalkylderivatives of 2-aminomethyl-2,3-dihydro-1,4-benzodioxine and the process of preparation thereof” (Vyzkumny Ustav Pro Farmacii A Biochemii s.p., priority 1991, dated 1995)", "key": {"[1]": {"system": "blood pressure", "assay": "Hypotensive activity, pentobarbital anaesthesized dogs", "assay_type": "in vivo, dog", "text": "b) The blood pressure of pentobarbital anaesthesized dogs was registered invasively in arteria femoralis. The average decrease in systolic (SBP) arid diastolic (DBP) blood pressure expressed in per cents of the starting blood pressure level after intravenous and oral administration is shown in Tables 5 and 6."}, "[2]": {"system": "blood pressure", "assay": "Hypotensive activity, conscious monkeys", "assay_type": "in vivo, Macaca mulatta", "protocol": "c) The blood pressure of conscious monkeys (Macaca mulatta) was measured non-invasively on the arm. The average decrease in systolic (SBP) and diastolic (DBP) blood pressure after intravenous and oral administration was expressed in per cents of the starting blood pressure."}, "[3]": {"system": "urinary bladder sphincter", "assay": "Effect on the opening pressure of the urinary bladder sphincter", "assay_type": "in vivo, rat", "conditions": "rats, compared with prazosin or terazosin"}, "[4]": {"conditions": "i.v., 0.46 mg/kg, value 1 of 5 (heads 5/30/60/180 min; probably 1 min)"}, "[5]": {"conditions": "i.v., 0.46 mg/kg, value 2 of 5 (heads 5/30/60/180 min; probably 5 min)"}, "[6]": {"conditions": "i.v., 0.46 mg/kg, value 3 of 5 (heads 5/30/60/180 min; probably 30 min)"}, "[7]": {"conditions": "i.v., 0.46 mg/kg, value 4 of 5 (heads 5/30/60/180 min; probably 60 min)"}, "[8]": {"conditions": "i.v., 0.46 mg/kg, value 5 of 5 (heads 5/30/60/180 min; probably 180 min)"}, "[9]": {"conditions": "i.v., 4.6 mg/kg, value 1 of 5 (heads 5/30/60/180 min; probably 1 min)"}, "[10]": {"conditions": "i.v., 4.6 mg/kg, value 2 of 5 (heads 5/30/60/180 min; probably 5 min)"}, "[11]": {"conditions": "i.v., 4.6 mg/kg, value 3 of 5 (heads 5/30/60/180 min; probably 30 min)"}, "[12]": {"conditions": "i.v., 4.6 mg/kg, value 4 of 5 (heads 5/30/60/180 min; probably 60 min)"}, "[13]": {"conditions": "i.v., 4.6 mg/kg, value 5 of 5 (heads 5/30/60/180 min; probably 180 min)"}}}
{"smiles": "COc1ccc(C(C#N)(CCCNCC2COc3ccccc3O2)C(C)C)cc1OC", "note": "(racemic) [VUFB 17951, 5-(2,3-Dihydro-1,4-benzodioxin-2-ylmethylamino)-2-(3,4-dimethoxyphenyl)-2-isopropyl valeronitrile]", "values": [{"measurement": "decrease in diastolic blood pressure (DBP)", "setting": "[1]; [4]", "value": -52, "unit": "per cents"}, {"measurement": "decrease in systolic blood pressure (SBP)", "setting": "[1]; [4]", "value": -46, "unit": "per cents"}, {"measurement": "decrease in diastolic blood pressure (DBP)", "setting": "[1]; [5]", "value": -46, "unit": "per cents"}, {"measurement": "decrease in systolic blood pressure (SBP)", "setting": "[1]; [5]", "value": -47, "unit": "per cents"}, {"measurement": "decrease in diastolic blood pressure (DBP)", "setting": "[1]; [6]", "value": -40, "unit": "per cents"}, {"measurement": "decrease in systolic blood pressure (SBP)", "setting": "[1]; [6]", "value": -41, "unit": "per cents"}, {"measurement": "decrease in diastolic blood pressure (DBP)", "setting": "[1]; [7]", "value": -36, "unit": "per cents"}, {"measurement": "decrease in systolic blood pressure (SBP)", "setting": "[1]; [7]", "value": -41, "unit": "per cents"}, {"measurement": "decrease in diastolic blood pressure (DBP)", "setting": "[1]; [8]", "value": -28, "unit": "per cents"}, {"measurement": "decrease in systolic blood pressure (SBP)", "setting": "[1]; [8]", "value": -26, "unit": "per cents"}, {"measurement": "decrease in diastolic blood pressure (DBP)", "setting": "[1]; [9]", "value": -53, "unit": "per cents"}, {"measurement": "decrease in systolic blood pressure (SBP)", "setting": "[1]; [9]", "value": -46, "unit": "per cents"}, {"measurement": "decrease in diastolic blood pressure (DBP)", "setting": "[1]; [10]", "value": -49, "unit": "per cents"}, {"measurement": "decrease in systolic blood pressure (SBP)", "setting": "[1]; [10]", "value": -48, "unit": "per cents"}, {"measurement": "decrease in diastolic blood pressure (DBP)", "setting": "[1]; [11]", "value": -47, "unit": "per cents"}, {"measurement": "decrease in systolic blood pressure (SBP)", "setting": "[1]; [11]", "value": -42, "unit": "per cents"}, {"measurement": "decrease in diastolic blood pressure (DBP)", "setting": "[1]; [12]", "value": -42, "unit": "per cents"}, {"measurement": "decrease in systolic blood pressure (SBP)", "setting": "[1]; [12]", "value": -40, "unit": "per cents"}, {"measurement": "decrease in diastolic blood pressure (DBP)", "setting": "[1]; [13]", "value": -34, "unit": "per cents"}, {"measurement": "decrease in systolic blood pressure (SBP)", "setting": "[1]; [13]", "value": -31, "unit": "per cents"}, {"measurement": "decrease in diastolic blood pressure (DBP)", "setting": "[1]; p.o., 4.6 mg/kg, 15 min", "value": -9, "unit": "per cents"}, {"measurement": "decrease in systolic blood pressure (SBP)", "setting": "[1]; p.o., 4.6 mg/kg, 15 min", "value": -9, "unit": "per cents"}, {"measurement": "decrease in diastolic blood pressure (DBP)", "setting": "[1]; p.o., 4.6 mg/kg, 30 min", "value": -11, "unit": "per cents"}, {"measurement": "decrease in systolic blood pressure (SBP)", "setting": "[1]; p.o., 4.6 mg/kg, 30 min", "value": -11, "unit": "per cents"}, {"measurement": "decrease in diastolic blood pressure (DBP)", "setting": "[1]; p.o., 4.6 mg/kg, 60 min", "value": -13, "unit": "per cents"}, {"measurement": "decrease in systolic blood pressure (SBP)", "setting": "[1]; p.o., 4.6 mg/kg, 60 min", "value": -14, "unit": "per cents"}, {"measurement": "decrease in diastolic blood pressure (DBP)", "setting": "[1]; p.o., 4.6 mg/kg, 120 min", "value": -14, "unit": "per cents"}, {"measurement": "decrease in systolic blood pressure (SBP)", "setting": "[1]; p.o., 4.6 mg/kg, 120 min", "value": -19, "unit": "per cents"}, {"measurement": "decrease in diastolic blood pressure (DBP)", "setting": "[1]; p.o., 4.6 mg/kg, 300 min", "value": -19, "unit": "per cents"}, {"measurement": "decrease in systolic blood pressure (SBP)", "setting": "[1]; p.o., 4.6 mg/kg, 300 min", "value": -24, "unit": "per cents"}, {"measurement": "decrease in diastolic blood pressure (DBP)", "setting": "[2]; i.v., 0.25 mg/kg, 1 min", "value": -49, "unit": "per cents"}, {"measurement": "decrease in systolic blood pressure (SBP)", "setting": "[2]; i.v., 0.25 mg/kg, 1 min", "value": -37, "unit": "per cents"}, {"measurement": "decrease in diastolic blood pressure (DBP)", "setting": "[2]; i.v., 0.25 mg/kg, 5 min", "value": -50, "unit": "per cents"}, {"measurement": "decrease in systolic blood pressure (SBP)", "setting": "[2]; i.v., 0.25 mg/kg, 5 min", "value": -45, "unit": "per cents"}, {"measurement": "decrease in diastolic blood pressure (DBP)", "setting": "[2]; i.v., 0.25 mg/kg, 30 min", "value": -31, "unit": "per cents"}, {"measurement": "decrease in systolic blood pressure (SBP)", "setting": "[2]; i.v., 0.25 mg/kg, 30 min", "value": -28, "unit": "per cents"}, {"measurement": "decrease in diastolic blood pressure (DBP)", "setting": "[2]; i.v., 0.25 mg/kg, 60 min", "value": -17, "unit": "per cents"}, {"measurement": "decrease in systolic blood pressure (SBP)", "setting": "[2]; i.v., 0.25 mg/kg, 60 min", "value": -11, "unit": "per cents"}, {"measurement": "decrease in diastolic blood pressure (DBP)", "setting": "[2]; i.v., 0.25 mg/kg, 180 min", "value": -18, "unit": "per cents"}, {"measurement": "decrease in systolic blood pressure (SBP)", "setting": "[2]; i.v., 0.25 mg/kg, 180 min", "value": -8, "unit": "per cents"}, {"measurement": "decrease in diastolic blood pressure (DBP)", "setting": "[2]; i.v., 1.0 mg/kg, 1 min", "value": -58, "unit": "per cents"}, {"measurement": "decrease in systolic blood pressure (SBP)", "setting": "[2]; i.v., 1.0 mg/kg, 1 min", "value": -50, "unit": "per cents"}, {"measurement": "decrease in diastolic blood pressure (DBP)", "setting": "[2]; i.v., 1.0 mg/kg, 5 min", "value": -60, "unit": "per cents"}, {"measurement": "decrease in systolic blood pressure (SBP)", "setting": "[2]; i.v., 1.0 mg/kg, 5 min", "value": -53, "unit": "per cents"}, {"measurement": "decrease in diastolic blood pressure (DBP)", "setting": "[2]; i.v., 1.0 mg/kg, 30 min", "value": -46, "unit": "per cents"}, {"measurement": "decrease in systolic blood pressure (SBP)", "setting": "[2]; i.v., 1.0 mg/kg, 30 min", "value": -39, "unit": "per cents"}, {"measurement": "decrease in diastolic blood pressure (DBP)", "setting": "[2]; i.v., 1.0 mg/kg, 60 min", "value": -30, "unit": "per cents"}, {"measurement": "decrease in systolic blood pressure (SBP)", "setting": "[2]; i.v., 1.0 mg/kg, 60 min", "value": -29, "unit": "per cents"}, {"measurement": "decrease in diastolic blood pressure (DBP)", "setting": "[2]; i.v., 1.0 mg/kg, 180 min", "value": -23, "unit": "per cents"}, {"measurement": "decrease in systolic blood pressure (SBP)", "setting": "[2]; i.v., 1.0 mg/kg, 180 min", "value": -19, "unit": "per cents"}, {"measurement": "decrease in diastolic blood pressure (DBP)", "setting": "[2]; p.o., 10.0 mg/kg, 5-6 hours", "value": -29, "unit": "per cents"}, {"measurement": "decrease in systolic blood pressure (SBP)", "setting": "[2]; p.o., 10.0 mg/kg, 5-6 hours", "value": -23, "unit": "per cents"}, {"measurement": "decrease in diastolic blood pressure (DBP)", "setting": "[2]; p.o., 10.0 mg/kg, 0.5 hours", "value": -30, "unit": "per cents"}, {"measurement": "decrease in systolic blood pressure (SBP)", "setting": "[2]; p.o., 10.0 mg/kg, 0.5 hours", "value": -26, "unit": "per cents"}, {"measurement": "decrease in diastolic blood pressure (DBP)", "setting": "[2]; p.o., 10.0 mg/kg, 1 hours", "value": -27, "unit": "per cents"}, {"measurement": "decrease in systolic blood pressure (SBP)", "setting": "[2]; p.o., 10.0 mg/kg, 1 hours", "value": -24, "unit": "per cents"}, {"measurement": "decrease in diastolic blood pressure (DBP)", "setting": "[2]; p.o., 10.0 mg/kg, 3 hours", "value": -26, "unit": "per cents"}, {"measurement": "decrease in systolic blood pressure (SBP)", "setting": "[2]; p.o., 10.0 mg/kg, 3 hours", "value": -21, "unit": "per cents"}, {"measurement": "decrease in diastolic blood pressure (DBP)", "setting": "[2]; p.o., 10.0 mg/kg, 24 hours", "value": -11, "unit": "per cents"}, {"measurement": "decrease in systolic blood pressure (SBP)", "setting": "[2]; p.o., 10.0 mg/kg, 24 hours", "value": -9, "unit": "per cents"}, {"measurement": "duration of action on opening pressure of the urinary bladder sphincter", "setting": "[3]", "value": "longer duration of action"}, {"measurement": "lowering of the opening pressure of the urinary bladder sphincter", "setting": "[3]; corresponding doses", "value": "lowered the opening pressure of the urinary bladder sphincter of rats in corresponding doses in the same extent as prazosin"}]}
